{
  "source": "patent US11638702B2",
  "about": "“Glyceryl 3-hydroxybutyrates for traumatic brain injury” (NeuroEnerygy Ventures, Inc., priority 2017, dated 2023)",
  "key": {"[1]": {"tested_on": "traumatic brain injury (TBI) patients", "assay": "Group comparisons of TBI patients / military personnel given glyceryl tris(3-hydroxybutyrate) versus matched patients", "type": "in vivo, human", "description": "The patients are followed up approximately 6 months, after the TBI.\nMilitary personnel having closed TBIs due to vehicular accidents or IEDs or other battlefield causes are evaluated for the severity of their TBIs and, where glyceryl tris(3-hydroxybutyrate) is available for administration, are started on a regimen of […] in 2 or 3 divided doses for 7 days (which regimen is generally started within 2 or 3 hours of injury) and then re-evaluated at day 7 to assess whether further treatment for the TBI is warranted. These are compared with comparably injured military personnel where access to the glyceryl tris(3-hydroxybutyrate) was not available for administration within the first week after injury.\nIn light of Example 10, combat troops and medics associated therewith are provided with glyceryl tris(3-hydroxybutyrate) to take into the field for use in triage in the case of mild-moderate closed TBI situations.\nIn light of Examples 10 and 11, combat troops are routinely given a morning dose of glyceryl tris(3-hydroxybutyrate) while in combat zones in case they suffer a mild to moderate non-penetrating closed TBI. For those troops that do suffer such TBIs within 12 hours of administration, their recovery, both acutely and longer term, is improved as compared to those only receiving the glyceryl tris(3-hydroxybutyrate) administration upon injury, after being matched for injury severity. Similar comparatives between those getting variously identical regimens of glyceryl tris(3-hydroxybutyrate) post-injury other than the single prophylactic dose prior to injury, with those receiving the preinjury dose faring better than those not receiving it, and further those whose injury is closer in time to the administration (1-2 hours post administration) faring better than those being injured further in time form the administration (10-12 hours post-administration)."}, "[2]": {"tested_on": "traumatic brain injury (TBI) patients", "assay": "Oral glyceryl tris(3-hydroxybutyrate) with standard non-restricted diet in individual TBI patients (case examples)", "type": "in vivo, human", "details": "for Clinical status at follow-up: day 7 of regimen", "description": "A 60 kg person presents with TBI due to a minor car accident. On initial examination, within 1 hour of the accident, moderate TBI is determined by EMT at the scene, on the basis disorientation and of the Glasgow Coma Scale (9-13). The patient is conscious, is hyperglycemic and able to orally ingest the ester. The patient is started on 0.5 g/kg/day glyceryl tris(3-hydroxybutyrate) orally in 3 divided doses (i.e., 10 g per serving 3 times a day). The patient is transported to a medical facility and allowed to ingest a standard diet lunch, having no glucogenic caloric restriction. […] The patient completes the regimen.\nA 70 kg (boxer) presents with a sports injury concussion after having a history of 3 similar concussions over the past year. The past concussions are treated by standard medical practice without the use of ketogenic diet, starvation, or the esters of use in the present invention. The most recent concussive injury occurs 2 hours before the patient being brought into a hospital for treatment. The patient is immediately examined and determined to be hyperglycemic and to have a moderate concussive injury (on the basis of short term loss of consciousness, their lingering disorientation, and a Glasgow Coma Scale score of 9-13). The patient is started on 2.0 g/kg/day glyceryl tris(3-hydroxybutyrate) in three divided dose (i.e.. 46.7 g per serving 3 times a day) and permitted an ordinary standard oral diet not having glucogenic caloric restrictions for a 70 kg person. Treatment continues for 3 days.\nThe patient in Example 3, knowing that further concussive incidents are likely requests advice as to minimizing the effects of further concussive incidents. The patient is told to restart the glyceryl tris(3-hydroxybutyrate) regimen at least one meal period before partaking in the activity likely to result in a concussive injury. The patient has such serving at a 5 PM dinner and is in a match at 7 PM. The patient does in fact suffer a further TBI which once again is upon examination at the scene is determined to be a moderate TBI, however, the patient is euglycemic. On transport to a medical facility, the patient is re-examined and confirm that they have suffered another moderate TBI. The patient is started on 2.0 g/kg/day glyceryl tris(3-hydroxybutyrate) in three divided doses 46.7 g per serving 3 times a day) and permitted an ordinary standard oral diet not having glucogenic caloric restrictions for a 70 kg person. […] The patient is advised to continue with the glyceryl tris(3-hydroxybutyrate) regimen as in Example 3 for 6 days and return for re-evaluation. The patient maintains the regimen for 3 days instead of the recommended 6 and reports no adverse or lingering effects from the TBI.\nThe patients in Examples 2, 4, and 5 on re-evaluation are immediately started on the regimens referred to in Examples 1, 3, and 3 respectively for 7 days, and directed to return for re-evaluation on the 7th day of the newly started regimen. […] However, the improvement is not as complete as the patients in Examples 1 or 3.\nA 30 kg child is brought to the emergency room with moderate to severe TBI (as per the Modified Glasgow Coma Scale) due to a playground fall, is hyperglycemic, is unconscious, is intubated, and begun on a regimen of 30 g twice daily of glyceryl tris(3-hydroxybutyrate) and further fed standard normal enteral diet. The regimen is continued for 7 days and re-evaluated at that time. […] The treatment is continued, with re-evaluation set for 7 days later."}},
  "data": [
    {"smiles": "CC(O)CC(=O)OCC(COC(=O)CC(C)O)OC(=O)CC(C)O", "note": "(stereo not drawn) [glyceryl tris(3-hydroxybutyrate)]", "values": [
      {"measurement": "Long term effects of TBI", "setting": "[1]; Example 9: moderate TBI, given with normal meals 2 or 3 times a day for one or two weeks, follow-up approximately 6 months after TBI, vs ketogenic diet or starvation", "value": "minimal, if not non-existent"},
      {"measurement": "Recovery from acute symptoms and long-term post-concussive syndrome symptoms vs those not receiving it", "setting": "[1]; Example 10: military personnel, closed TBI, 0.5 mg/kg/day to 2.0 mg/kg/day in 2 or 3 divided doses for 7 days, started within 2 or 3 hours of injury", "value": "fare much better"},
      {"measurement": "Outcome vs treatment as in Example 10", "setting": "[1]; Example 11: mild-moderate closed TBI, given within minutes of suffering the TBI", "value": "fare even better"},
      {"measurement": "Recovery, acutely and longer term, vs administration only upon injury", "setting": "[1]; Example 12: combat troops, morning prophylactic dose, TBI within 12 hours of administration, matched for injury severity", "value": "improved"},
      {"measurement": "Disorientation", "setting": "[2]; Example 1: 60 kg female, moderate TBI (Glasgow Coma Scale 9-13), 0.5 g/kg/day orally in 3 divided doses, standard diet, after 2 days", "value": "recovered from their disorientation"},
      {"measurement": "Clinical status at follow-up", "setting": "[2]; Example 1: 60 kg female, moderate TBI, 0.5 g/kg/day orally in 3 divided doses, normal meals", "value": "fully recovered"},
      {"measurement": "Glycemic status", "setting": "[2]; Example 1: patient hyperglycemic at presentation, 0.5 g/kg/day, from shortly after ester administration through end of treatment and beyond", "value": "euglycemic"},
      {"measurement": "Clinical status at follow-up", "setting": "[2]; Example 3: 70 kg male boxer, 2.0 g/kg/day in three divided doses, standard oral diet", "value": "fully recovered"},
      {"measurement": "Glycemic status", "setting": "[2]; Example 3: patient hyperglycemic at presentation, 2.0 g/kg/day, from shortly after ester administration through end of treatment", "value": "euglycemic"},
      {"measurement": "Adverse effects of the TBI the next day", "setting": "[2]; Example 6: pre-injury serving, then 2.0 g/kg/day in three divided doses, the next day", "value": "no adverse effects"},
      {"measurement": "Symptoms on reexamination", "setting": "[2]; Example 6: regimen maintained for 3 days instead of the recommended 6", "value": "no symptoms are seen"},
      {"measurement": "Glycemic status at examination after further TBI", "setting": "[2]; Example 6: serving taken at 5 PM dinner before a 7 PM match (pre-injury dose), moderate TBI", "value": "euglycemic"},
      {"measurement": "Clinical status at end of treatment", "setting": "[2]; Example 8: 30 kg child, 30 g twice daily, after an additional 3 days of treatment", "value": "fully recovered"},
      {"measurement": "Consciousness", "setting": "[2]; Example 8: 30 kg child, 30 g twice daily, day 4 of continued treatment", "value": "regains consciousness"},
      {"measurement": "Clinical symptoms", "setting": "[2]; Example 8: 30 kg child, moderate to severe TBI, unconscious, intubated, 30 g twice daily, standard enteral diet, after 7 days", "value": "show improvement, but are not yet in normal ranges"}
    ]}
  ]
}
